In patent EP0048186B1, “Cyclopropane-carboxylic-acid derivatives, their preparation, their use in combating vegetal parasites, animals and locations, their compositions, and intermediates” (ROUSSEL-UCLAF, priority 1980, dated 1982):

Tests used:
Format in all cases: in vivo
[1] = test system: mouches domestiques; test: Lethal effect on house flies, topical application; conditions: for activité (conclusion): conclusion in words on the lethal test on house flies; for DL 50 (ng par individu): female house flies 4/5 days old, topical 1 µl acetone solution on dorsal thorax, mortality 24 h after treatment
Protocol: 1°); Etude de l'effet létal sur mouches domestiques.
Les insectes tests sont des mouches domestiques femelles âgées de 4/5 jours. On opère par application topique de 1 ul de solution acétonique du produit sur le thorax dorsal des insectes à l'aide du micro manipulateur d'Arnold. On utilise 50 individus par dose et par traitement. On effectue le contrôle de mortalité vingt-quatre heures après traitement.
Le résultat obtenu exprimé en DL 50 ou dose (en nanogrammes) nécessaire pour tuer 50% des insectes, est le suivant: […]

[2] = test system: mouche domestique; test: Knock-down activity on house fly, direct spray in Kearns and March chamber; conditions: for KT 50 en mn: direct spray, acetone/isopar L; for activité (conclusion): conclusion in words on the knock-down test
Protocol: 3°): Etude de l'activité de choc sur mouche domestique.
Les insectes tests sont des mouches domestiques femelles âgées de 4/5 jours. On opère par pulvérisation directe en chambre de Kearns et March en utilisant comme solvant un mélange en volumes égaux d'acétone et d'isopar L (quantité de solution utilisée 2 x 0,2 cm3). On utilise environ 50 insectes par dose de traitement. On effectue les contrôles toutes les minutes jusqu'à 10 minutes, puis à 15 minutes et l'on détermine le KT 50 par les méthodes habituelles.

[3] = test system: larves de Spodoptera littoralis; test: Effect on Spodoptera littoralis larvae, topical application; conditions: for activité (conclusion): conclusion in words on the Spodoptera littoralis test; for DL 50 (ng par individu): fourth-instar larvae, topical acetone solution on dorsal thorax, mortality 48 h after treatment
Protocol: 2°): Etude de l'effet sur larves de Spodoptera littoralis.
Les essais sont effectués par application topique d'une solution acétonique du produit à tester à l'aide du micro manipulateur d'Arnold sur le thorax dorsal des larves. On utilise 15 larves par dose de produit à tester. Les larves utilisées sont des larves du quatrième stade larvaire, c'est-à-dire âgées d'environ 10 jours lorsqu'elles sont élevées à 24°C et 65% d'humidité relative. Après traitement, les individus sont placés sur un milieu nutritif artificiel (milieu de Poitout).
On effectue le contrôle des mortalités 48 heures après traitement.

[4] = test system: Tétranychus urticae; test: Adulticide test on Tetranychus urticae on bean plants; conditions: dose 2,8 mg/I, sprayed bean plants, checks after 1, 24, 48 and 72 h of contact
Protocol: 5°): Activité sur Tétranychus urticae. (composé de l'exemple 1)
On utilise des plants de haricot comportant deux feuilles cotylédonaires. Ces plants sont traités au pistolet Fisher avec une solution acétonique du produit. Après séchage 25 femelles de l'acarien Tétranychus urticae sont disposées par feuilles soit 50 individus par dose expérimentée par plant. Les contrôles d'efficacité sont effectués après 1, 24, 48 et 72 heures de contact.

[5] = test system: blatte germanique (Blatella germanica); test: Tarsal contact activity on German cockroach
Protocol: 4°): Etude de l'activité par contact tarsal sur blatte germanique. (composé de l'exemple 1J
Les insectes testés sont des mâles de blatte germanique (Blatella germanica). On opère par dépôt d'une solution acétonique de concentration déterminée sur le fond d'une boîte de Petri de 20 cm de diamètre. Après séchage on laisse séjourner 20 mâles de blattes par concentration durant 1 heure puis on transfère les insectes sur milieu sain et on contrôle leur mortalité à 24 h, 48 h, 3 et 5 jours.

Question: `C#C[C@@H](OC(=O)[C@@H]1[C@H](/C=C\C(=O)OCC(F)(F)F)C1(C)C)c1cccc(Oc2ccccc2)c1` [Exemple 29, (1R cis) 2,2-diméthyl-3-/(Z)-3-oxo 3-(2,2,2-trifluoro éthoxy) 1-propényl/ cyclopropane carboxylatede (R) a-éthynyl 3-phénoxy benzyle] was tested. Which “activité (conclusion)” value [1] did it give?
Answer: activité remarquable

Question: And the “DL 50 (ng par individu)” value [1]?
Answer: 0,825 ng par individu

Question: `CC1(C)[C@H](C(=O)OC(C#N)c2cccc(Oc3ccccc3)n2)[C@@H]1/C=C\C(=O)OCC(F)(F)F` (stereo partly drawn) [Exemple 30, (1R cis) 2,2-diméthyl-3-/(Z)-3-oxo 3-(2,2,2-trifluoro éthoxy) 1-propényl/ cyclopropane carboxylatede (RS) a-cyano 6-phénoxy 2-pyridyl méthyle] was tested. Which “KT 50 en mn” value ([2]; Concentration 1 g/l) did it give?
Answer: 3,498 mn

Question: And the “activité (conclusion)” value [2]?
Answer: bonne activité

Question: Which “activité (conclusion)” value [3] does the source give for `CC1(C)[C@H](C(=O)O[C@H](C#N)c2cccc(Oc3ccccc3)c2)[C@@H]1/C=C\C(=O)OCC(F)(F)F` [Exemple 1, (1 R cis) 2,2-diméthyl 3/(Z) 3-(2,2,2-trifluoroéthoxy) 3-oxo 1-propényl/ cyclopropane carboxylatede (S) a-cyano 3-phénoxy benzyle] here?
Answer: bonne activité

Question: What about the “DL 50 (ng par individu)” value [3] of the same compound?
Answer: 4,699 ng par individu

Question: And the “KT 50 en mn” value ([2]; Concentration 1 g/l)?
Answer: 3,534 mn

Question: And the “activité (conclusion)” value [2]?
Answer: bonne activité

Question: And the “activité (conclusion)” value [1]?
Answer: activité remarquable

Question: And the “DL 50 (ng par individu)” value [1]?
Answer: 1,115 ng par individu

Question: And the “activité (essai adulticide)” value [4]?
Answer: très bonne activité

Question: What about the “activité (conclusion)” value ([5]; conclusion in words on the tarsal contact test) of the same compound?
Answer: très bonne activité

Question: What about the “concentration létale 50 (CL 50)” value ([5]; male cockroaches, 1 h contact with dried deposit in Petri dish, mortality checked at 24 h, 48 h, 3 and 5 days) of the same compound?
Answer: 0,216 mg/m2

Question: For `CC1(C)[C@H](C(=O)O[C@H](C#N)c2cccc(Oc3ccccc3)c2)[C@@H]1/C=C\C(=O)OCCF` [Exemple 35, (1R cis) 2,2-diméthyl-3-/(Z)-3-oxo 3-(2-fluoroéthoxy) 1-propényl/ cyclopropane carboxylatede (S) a-cyano 3-phénoxy benzyle], which “activité (conclusion)” value [3] is on record?
Answer: bonne activité

Question: And the “DL 50 (ng par individu)” value [3]?
Answer: 0,544 ng par individu

Question: What about the “KT 50 en mn” value ([2]; Concentration 1 g/l) of the same compound?
Answer: 2,894 mn

Question: And the “activité (conclusion)” value [2]?
Answer: bonne activité

Question: For `CC1(C)[C@H](C(=O)O[C@H](C#N)c2cccc(Oc3ccccc3)c2)[C@@H]1/C=C\C(=O)OC(C(F)(F)F)C(F)(F)F` [Exemple 23, (1R cis) 2,2-diméthyl-3-/(Z)-3-oxo 3-(2-(1,1,1,3,3,3-hexafluoro)propoxy) 1-propényl/ cyclopropane carboxylatede (S) a-cyano 3-phénoxy benzyle], which “activité (conclusion)” value [1] is on record?
Answer: activité remarquable

Question: What about the “DL 50 (ng par individu)” value [1] of the same compound?
Answer: 0,962 ng par individu

Question: For `C#CCN1CC(=O)N(COC(=O)[C@@H]2[C@H](/C=C\C(=O)OCC(F)(F)F)C2(C)C)C1=O` [Exemple 26, (1R cis) 2,2-diméthyl-3-/(Z)-3-oxo 3-(2,2,2-trifluoro éthoxy) 1-propényl/ cyclopropane carboxylatede (3-propargyl 2,5-dioxoimidazolidinyl) méthyle], which “KT 50 en mn” value ([2]; Concentration 0,25 g/l) is on record?
Answer: 1,550 mn

Question: What about the “activité (conclusion)” value [2] of the same compound?
Answer: bonne activité

Question: For `C=CCC1=C(C)[C@@H](OC(=O)[C@@H]2[C@H](/C=C\C(=O)OCC(F)(F)F)C2(C)C)CC1=O` [Exemple 2, (1R cis) 2,2-diméthyl-3-/(Z)-3-oxo-3-(2,2,2-trifluoroéthoxy) 1-propényll cyclopropane carboxylatede (1S) 2-diméthyl-4-oxo-3-(2-propényl) 2-cyclopenten-1-yle], which “KT 50 en mn” value ([2]; Concentration 0,25 g/l) is on record?
Answer: 3,608 mn

Question: And the “activité (conclusion)” value [2]?
Answer: bonne activité
